Experimental data from patent publication US10342760B2, “Lipid nanoparticles for transfection and related methods” (The University of British Columbia, priority 2013, dated 2019).

Assay: Apparent pKa of ionizable cationic lipid
Assay type: physicochemical

pKa: 6.3
Structure (SMILES): CCCCCCCCC1CC1CCCCCCCCC(CCCCCCCCC1CC1CCCCCCCC)OC(=O)CCCN(C)C (stereo not shown) [Cationic Lipid A, 1,17-bis(2-octylcyclopropyl)heptadecan-9-yl-4-(dimethylamino)butanoate]
